Reference: patent publication US8933230B2, “Phosphorus-containing group-substituted quinoline, its preparation process, medical composition containing the compounds and application” (priority 2011, dated 2015)

Tests used:
Experiment in all cases: KinomeScan kinase panel
Type in all cases: binding
EPHA8 = biological target: T1, EPHA8 (Homo sapiens, UniProt P29322)
T1 construct: purchased DiscoveRx Corporation (KinomeScan)
In short: (§1)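 KinomeScan, 442 kinases incl. mutants; cpd 1000 nM; single-concentration inhibition.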

STK36 = biological target: T2, STK36 (Homo sapiens, UniProt Q9NRP7)
T2 construct: purchased DiscoveRx Corporation (KinomeScan)
In short: as §1

PKN2 = biological target: T3, PKN2 (Homo sapiens, UniProt Q16513)
T3 construct: purchased DiscoveRx Corporation (KinomeScan)
In short: as §1

PRKCQ = biological target: T4, PRKCQ (Homo sapiens, UniProt Q04759)
T4 construct: purchased DiscoveRx Corporation (KinomeScan)
In short: as §1

BMPR1A = biological target: T5, BMPR1A (Homo sapiens, UniProt P36894)
T5 construct: purchased DiscoveRx Corporation (KinomeScan)
In short: as §1

YANK2 = biological target: T6, YANK2 (Homo sapiens, UniProt Q9NY57)
T6 construct: purchased DiscoveRx Corporation (KinomeScan service)
In short: as §1

GCN2(kin.dom.2.S808G) = biological target: T7, GCN2(kin.dom.2.S808G) (Homo sapiens, UniProt Q9P2K8, S808G)
T7 construct: GCN2(kin.dom.2.S808G); purchased DiscoveRx Corporation (KinomeScan)
In short: as §1

MYO3A = biological target: T8, MYO3A (Homo sapiens, UniProt Q8NEV4)
T8 construct: purchased DiscoveRx Corporation (KinomeScan)
In short: as §1

BRK = biological target: T9, BRK (Homo sapiens, UniProt Q13882)
T9 construct: purchased DiscoveRx Corporation (KinomeScan)
In short: as §1

DAPK3 = biological target: T10, DAPK3 (Homo sapiens, UniProt O43293)
T10 construct: purchased DiscoveRx Corporation (KinomeScan)
In short: as §1

JNK1 = biological target: T11, JNK1 (Homo sapiens, UniProt P45983)
T11 construct: purchased DiscoveRx Corporation (KinomeScan)
In short: as §1

STK33 = biological target: T12, STK33 (Homo sapiens, UniProt Q9BYT3)
T12 construct: purchased DiscoveRx Corporation (KinomeScan)
In short: as §1

EGFR(L858R,T790M) = biological target: T13, EGFR(L858R,T790M) (Homo sapiens, UniProt P00533, L858R/T790M)
T13 construct: purchased DiscoveRx Corporation (KinomeScan)
In short: as §1

SLK = biological target: T14, SLK (Homo sapiens, UniProt Q9H2G2)
T14 construct: purchased DiscoveRx Corporation (KinomeScan)
In short: as §1

DRAK2 = biological target: T15, DRAK2 (Homo sapiens, UniProt O94768)
T15 construct: purchased DiscoveRx Corporation (KinomeScan)
In short: as §1

LTK = biological target: T16, LTK (Homo sapiens, UniProt P29376)
T16 construct: purchased DiscoveRx Corporation (KinomeScan)
In short: as §1

PRKG1 = biological target: T17, PRKG1 (Homo sapiens, UniProt Q13976)
T17 construct: purchased DiscoveRx Corporation (KinomeScan)
In short: as §1

CAMK2D = biological target: T18, CAMK2D (Homo sapiens, UniProt Q13557)
T18 construct: purchased DiscoveRx Corporation (KinomeScan)
In short: as §1

LYN = biological target: T19, LYN (Homo sapiens, UniProt P07948)
T19 construct: purchased DiscoveRx Corporation (KinomeScan)
In short: as §1

ERBB2 = biological target: T20, ERBB2 (Homo sapiens, UniProt P04626)
T20 construct: purchased DiscoveRx Corporation (KinomeScan)
In short: as §1

NEK1 = biological target: T21, NEK1 (Homo sapiens, UniProt Q96PY6)
T21 construct: purchased DiscoveRx Corporation (KinomeScan)
In short: as §1

EGFR(L861Q) = biological target: T22, EGFR(L861Q) (Homo sapiens, UniProt P00533, L861Q)
T22 construct: purchased DiscoveRx Corporation (KinomeScan)
In short: as §1

PHKG1 = biological target: T23, PHKG1 (Homo sapiens, UniProt Q16816)
T23 construct: purchased DiscoveRx Corporation (KinomeScan)
In short: as §1

BRSK1 = biological target: T24, BRSK1 (Homo sapiens, UniProt Q8TDC3)
T24 construct: purchased DiscoveRx Corporation (KinomeScan)
In short: as §1

MERTK = biological target: T25, MERTK (Homo sapiens, UniProt Q12866)
T25 construct: purchased DiscoveRx Corporation (KinomeScan)
In short: as §1

EGFR(L747-E749del,A750P) = biological target: T26, EGFR(L747-E749del,A750P) (Homo sapiens, UniProt P00533, A750P/DEL747-749)
T26 construct: purchased DiscoveRx Corporation (KinomeScan)
In short: as §1

TRKC = biological target: T27, TRKC (Homo sapiens, UniProt Q16288)
T27 construct: purchased DiscoveRx Corporation (KinomeScan)
In short: as §1

STK16 = biological target: T28, STK16 (Homo sapiens, UniProt O75716)
T28 construct: purchased DiscoveRx Corporation (KinomeScan)
In short: as §1

MST2 = biological target: T29, MST2 (Homo sapiens, UniProt Q13188)
T29 construct: purchased DiscoveRx Corporation (KinomeScan)
In short: as §1

KIT = biological target: T30, KIT (Homo sapiens, UniProt P10721)
T30 construct: purchased DiscoveRx Corporation (KinomeScan)
In short: as §1

CDK2 = biological target: T31, CDK2 (Homo sapiens, UniProt P24941)
T31 construct: purchased DiscoveRx Corporation (KinomeScan)
In short: as §1

KIT(D816H) = biological target: T32, KIT(D816H) (Homo sapiens, UniProt P10721, D816H)
T32 construct: purchased DiscoveRx Corporation (KinomeScan)
In short: as §1

RIOK1 = biological target: T33, RIOK1 (Homo sapiens, UniProt Q9BRS2)
T33 construct: purchased DiscoveRx Corporation
In short: as §1

STK35 = biological target: T34, STK35 (Homo sapiens, UniProt Q8TDR2)
T34 construct: purchased DiscoveRx Corporation (KinomeScan)
In short: as §1

FLT4 = biological target: T35, FLT4 (Homo sapiens, UniProt P35916)
T35 construct: purchased DiscoveRx Corporation (KinomeScan)
In short: as §1

T1 sequence (P29322 28-1005): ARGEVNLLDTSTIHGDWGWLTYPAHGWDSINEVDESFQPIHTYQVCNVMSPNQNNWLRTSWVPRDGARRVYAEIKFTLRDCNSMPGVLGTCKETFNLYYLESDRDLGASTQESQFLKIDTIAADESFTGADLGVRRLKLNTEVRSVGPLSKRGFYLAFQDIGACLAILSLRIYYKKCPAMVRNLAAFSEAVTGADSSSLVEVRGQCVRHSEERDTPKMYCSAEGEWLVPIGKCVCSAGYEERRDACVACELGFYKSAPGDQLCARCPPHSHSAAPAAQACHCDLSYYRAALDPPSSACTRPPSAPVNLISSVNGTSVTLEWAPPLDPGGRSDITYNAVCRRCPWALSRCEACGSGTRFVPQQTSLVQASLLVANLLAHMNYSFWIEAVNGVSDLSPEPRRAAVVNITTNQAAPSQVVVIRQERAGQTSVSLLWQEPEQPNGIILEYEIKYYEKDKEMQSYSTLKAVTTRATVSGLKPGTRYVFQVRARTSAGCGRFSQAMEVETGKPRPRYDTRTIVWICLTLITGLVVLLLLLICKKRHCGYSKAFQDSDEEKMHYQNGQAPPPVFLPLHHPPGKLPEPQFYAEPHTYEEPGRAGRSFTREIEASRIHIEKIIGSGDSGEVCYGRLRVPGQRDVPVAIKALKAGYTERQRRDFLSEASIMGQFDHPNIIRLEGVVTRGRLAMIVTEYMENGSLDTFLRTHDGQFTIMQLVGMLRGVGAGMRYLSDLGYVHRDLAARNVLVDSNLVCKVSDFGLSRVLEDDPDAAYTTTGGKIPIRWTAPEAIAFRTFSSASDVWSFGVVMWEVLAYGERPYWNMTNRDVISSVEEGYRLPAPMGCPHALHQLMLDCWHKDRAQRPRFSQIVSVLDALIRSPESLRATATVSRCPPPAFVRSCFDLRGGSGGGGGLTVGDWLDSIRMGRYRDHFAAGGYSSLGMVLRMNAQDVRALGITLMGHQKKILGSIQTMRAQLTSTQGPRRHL
T3 sequence (Q16513 whole entry): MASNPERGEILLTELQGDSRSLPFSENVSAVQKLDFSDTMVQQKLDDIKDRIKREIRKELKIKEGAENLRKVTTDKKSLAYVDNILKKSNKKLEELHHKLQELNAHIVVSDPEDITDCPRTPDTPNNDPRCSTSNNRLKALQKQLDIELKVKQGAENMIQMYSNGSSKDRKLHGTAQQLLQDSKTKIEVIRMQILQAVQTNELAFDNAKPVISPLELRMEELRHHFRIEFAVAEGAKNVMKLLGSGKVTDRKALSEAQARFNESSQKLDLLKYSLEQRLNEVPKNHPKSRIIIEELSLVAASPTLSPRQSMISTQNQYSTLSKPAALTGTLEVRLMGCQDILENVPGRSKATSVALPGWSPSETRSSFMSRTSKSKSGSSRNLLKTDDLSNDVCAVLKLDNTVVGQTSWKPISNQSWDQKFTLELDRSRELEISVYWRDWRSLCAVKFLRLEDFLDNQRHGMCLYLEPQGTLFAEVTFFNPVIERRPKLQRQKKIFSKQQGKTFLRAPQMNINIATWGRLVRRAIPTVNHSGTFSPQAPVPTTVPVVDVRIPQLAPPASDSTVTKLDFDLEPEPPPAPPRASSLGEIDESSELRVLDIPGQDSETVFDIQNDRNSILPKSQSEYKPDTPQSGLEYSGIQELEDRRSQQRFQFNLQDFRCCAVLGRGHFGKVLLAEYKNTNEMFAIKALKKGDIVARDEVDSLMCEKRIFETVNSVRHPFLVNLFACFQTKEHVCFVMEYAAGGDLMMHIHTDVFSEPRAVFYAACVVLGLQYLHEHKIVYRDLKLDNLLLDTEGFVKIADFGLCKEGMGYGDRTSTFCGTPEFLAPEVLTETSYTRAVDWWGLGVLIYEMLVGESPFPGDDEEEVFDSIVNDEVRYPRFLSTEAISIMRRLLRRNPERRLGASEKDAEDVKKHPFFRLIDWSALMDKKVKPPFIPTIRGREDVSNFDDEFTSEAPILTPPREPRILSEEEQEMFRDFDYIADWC
T17 sequence (Q13976 whole entry): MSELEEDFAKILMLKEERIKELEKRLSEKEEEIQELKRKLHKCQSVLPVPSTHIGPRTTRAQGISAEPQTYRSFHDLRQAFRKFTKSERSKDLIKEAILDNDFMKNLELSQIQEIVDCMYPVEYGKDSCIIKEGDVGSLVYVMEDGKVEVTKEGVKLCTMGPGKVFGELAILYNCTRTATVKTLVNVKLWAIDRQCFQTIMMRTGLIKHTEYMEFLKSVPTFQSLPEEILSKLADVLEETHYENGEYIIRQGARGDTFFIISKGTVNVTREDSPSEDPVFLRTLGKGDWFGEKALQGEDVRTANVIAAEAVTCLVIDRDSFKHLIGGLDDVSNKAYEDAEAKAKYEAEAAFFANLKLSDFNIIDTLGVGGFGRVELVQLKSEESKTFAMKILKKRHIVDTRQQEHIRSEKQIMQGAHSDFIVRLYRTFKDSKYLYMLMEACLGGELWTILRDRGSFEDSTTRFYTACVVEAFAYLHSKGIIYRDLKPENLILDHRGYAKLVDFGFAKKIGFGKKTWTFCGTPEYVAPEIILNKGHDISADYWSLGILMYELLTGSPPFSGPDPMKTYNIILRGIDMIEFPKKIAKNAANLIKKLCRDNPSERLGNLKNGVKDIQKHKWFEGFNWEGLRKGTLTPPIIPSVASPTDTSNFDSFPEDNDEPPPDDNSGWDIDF
T27 sequence (Q16288 32-839): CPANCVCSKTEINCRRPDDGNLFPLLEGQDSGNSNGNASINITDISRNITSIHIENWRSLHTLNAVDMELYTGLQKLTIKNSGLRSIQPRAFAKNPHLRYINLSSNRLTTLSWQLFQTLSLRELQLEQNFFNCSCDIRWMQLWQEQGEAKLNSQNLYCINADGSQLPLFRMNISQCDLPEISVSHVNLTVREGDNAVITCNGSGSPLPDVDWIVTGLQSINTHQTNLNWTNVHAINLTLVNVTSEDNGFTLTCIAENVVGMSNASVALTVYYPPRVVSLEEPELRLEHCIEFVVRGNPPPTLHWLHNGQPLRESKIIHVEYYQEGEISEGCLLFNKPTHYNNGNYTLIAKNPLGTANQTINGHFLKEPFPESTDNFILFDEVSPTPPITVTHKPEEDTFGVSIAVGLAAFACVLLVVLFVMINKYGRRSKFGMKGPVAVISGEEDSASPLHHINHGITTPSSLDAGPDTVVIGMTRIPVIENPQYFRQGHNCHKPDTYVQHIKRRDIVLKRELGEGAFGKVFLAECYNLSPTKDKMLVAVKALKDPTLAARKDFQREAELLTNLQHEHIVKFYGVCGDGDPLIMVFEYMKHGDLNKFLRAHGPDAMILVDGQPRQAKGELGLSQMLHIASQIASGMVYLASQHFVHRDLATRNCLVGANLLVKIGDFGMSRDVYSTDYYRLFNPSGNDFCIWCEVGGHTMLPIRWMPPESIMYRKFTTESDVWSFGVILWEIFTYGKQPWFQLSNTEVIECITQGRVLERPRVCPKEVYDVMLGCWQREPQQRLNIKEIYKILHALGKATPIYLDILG
T6 sequence (Q9NY57 whole entry): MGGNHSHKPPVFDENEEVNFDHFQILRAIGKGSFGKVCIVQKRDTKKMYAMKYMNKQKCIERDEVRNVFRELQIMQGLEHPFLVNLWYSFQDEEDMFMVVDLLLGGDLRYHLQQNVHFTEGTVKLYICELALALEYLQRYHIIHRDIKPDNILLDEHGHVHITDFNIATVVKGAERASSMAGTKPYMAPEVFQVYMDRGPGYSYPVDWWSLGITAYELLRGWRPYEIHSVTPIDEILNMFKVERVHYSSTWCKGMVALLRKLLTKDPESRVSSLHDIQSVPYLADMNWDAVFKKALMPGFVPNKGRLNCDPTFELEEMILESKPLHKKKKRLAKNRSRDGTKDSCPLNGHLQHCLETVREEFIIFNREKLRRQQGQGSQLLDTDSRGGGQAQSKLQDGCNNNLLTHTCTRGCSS
T4 sequence (Q04759 whole entry): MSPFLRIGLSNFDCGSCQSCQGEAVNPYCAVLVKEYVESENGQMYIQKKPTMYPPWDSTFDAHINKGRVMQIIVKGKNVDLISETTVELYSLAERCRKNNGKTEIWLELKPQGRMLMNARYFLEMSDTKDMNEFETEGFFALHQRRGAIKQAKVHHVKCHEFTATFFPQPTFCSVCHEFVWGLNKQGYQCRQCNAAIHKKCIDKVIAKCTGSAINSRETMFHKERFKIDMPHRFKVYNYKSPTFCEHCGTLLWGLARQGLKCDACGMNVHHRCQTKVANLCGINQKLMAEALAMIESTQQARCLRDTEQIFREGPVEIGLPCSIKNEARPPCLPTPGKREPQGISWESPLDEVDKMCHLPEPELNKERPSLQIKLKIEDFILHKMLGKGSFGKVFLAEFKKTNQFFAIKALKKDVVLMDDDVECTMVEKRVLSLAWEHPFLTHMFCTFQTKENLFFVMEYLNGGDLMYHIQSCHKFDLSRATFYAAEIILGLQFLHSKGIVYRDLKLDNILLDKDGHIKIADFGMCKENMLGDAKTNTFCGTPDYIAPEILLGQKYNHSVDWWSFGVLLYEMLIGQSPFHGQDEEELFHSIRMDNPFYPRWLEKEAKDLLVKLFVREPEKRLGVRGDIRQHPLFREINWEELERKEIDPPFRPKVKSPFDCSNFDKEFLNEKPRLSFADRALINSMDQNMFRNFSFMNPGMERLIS
T15 sequence (O94768 whole entry): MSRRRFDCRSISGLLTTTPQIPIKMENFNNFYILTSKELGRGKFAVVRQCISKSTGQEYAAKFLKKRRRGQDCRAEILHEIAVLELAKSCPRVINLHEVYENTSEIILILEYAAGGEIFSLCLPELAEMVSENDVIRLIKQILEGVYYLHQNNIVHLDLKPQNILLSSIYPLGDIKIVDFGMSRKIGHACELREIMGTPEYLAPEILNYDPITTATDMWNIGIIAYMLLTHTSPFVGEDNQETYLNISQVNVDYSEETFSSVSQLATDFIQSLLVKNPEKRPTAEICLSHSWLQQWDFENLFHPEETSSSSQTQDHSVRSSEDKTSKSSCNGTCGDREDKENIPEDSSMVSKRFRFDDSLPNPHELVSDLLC

Structure (SMILES): CCOP(=O)(CN1CCC(COc2cc3nccc(Oc4ccc(NC(=O)C5(C(=O)Nc6ccc(F)cc6)CC5)cc4F)c3cc2OC)CC1)OCC [Example 10, N1-[4-[[7-[[1-(diethoxyphosphorylmethyl)-4-piperidinyl]methoxyl]-6-methoxyl-4-quinolyl]oxyl]-3-fluorophenyl]-N1′-(4-fluorophenyl)cyclopropane-1,1-dicarboxamide]
- % Ctrl@1000 nM (EPHA8): 0.15 % Ctrl
- % Ctrl@1000 nM (STK36): 100 % Ctrl
- % Ctrl@1000 nM (PKN2): 2.6 % Ctrl
- % Ctrl@1000 nM (PRKCQ): 100 % Ctrl
- % Ctrl@1000 nM (BMPR1A): 100 % Ctrl
- % Ctrl@1000 nM (YANK2): 100 % Ctrl
- % Ctrl@1000 nM (GCN2(kin.dom.2.S808G)): 100 % Ctrl
- % Ctrl@1000 nM (MYO3A): 93 % Ctrl
- % Ctrl@1000 nM (BRK): 3.0 % Ctrl
- % Ctrl@1000 nM (DAPK3): 100 % Ctrl
- % Ctrl@1000 nM (JNK1): 80 % Ctrl
- % Ctrl@1000 nM (STK33): 46 % Ctrl
- % Ctrl@1000 nM (EGFR(L858R,T790M)): 100 % Ctrl
- % Ctrl@1000 nM (SLK): 7.4 % Ctrl
- % Ctrl@1000 nM (DRAK2): 100 % Ctrl
- % Ctrl@1000 nM (LTK): 26 % Ctrl
- % Ctrl@1000 nM (PRKG1): 100 % Ctrl
- % Ctrl@1000 nM (CAMK2D): 94 % Ctrl
- % Ctrl@1000 nM (LYN): 18 % Ctrl
- % Ctrl@1000 nM (ERBB2): 96 % Ctrl
- % Ctrl@1000 nM (NEK1): 100 % Ctrl
- % Ctrl@1000 nM (EGFR(L861Q)): 84 % Ctrl
- % Ctrl@1000 nM (PHKG1): 100 % Ctrl
- % Ctrl@1000 nM (BRSK1): 100 % Ctrl
- % Ctrl@1000 nM (MERTK): 2.1 % Ctrl
- % Ctrl@1000 nM (EGFR(L747-E749del,A750P)): 67 % Ctrl
- % Ctrl@1000 nM (TRKC): 2.2 % Ctrl
- % Ctrl@1000 nM (STK16): 77 % Ctrl
- % Ctrl@1000 nM (MST2): 100 % Ctrl
- % Ctrl@1000 nM (KIT): 0.2 % Ctrl
- % Ctrl@1000 nM (CDK2): 100 % Ctrl
- % Ctrl@1000 nM (KIT(D816H)): 63 % Ctrl
- % Ctrl@1000 nM (RIOK1): 100 % Ctrl
- % Ctrl@1000 nM (STK35): 82 % Ctrl
- % Ctrl@1000 nM (FLT4): 0.2 % Ctrl
